Experimental data reported in patent US5149704A, “Platelet activating antagonists” (Abbott Laboratories, priority 1991, dated 1992).
Structures can show the parent of a compound that is named as a salt.

target: T1, PAF receptor (Oryctolagus cuniculus, UniProt G1TEI7); experiment: PAF receptor binding assay ([^3 H]C18 -PAF, rabbit platelet membranes); details: 0.6 nM [^3 H]C18 -PAF, 60 min, 22-23 °C, Ki from IC50 by Cheng and Prusoff
T1 construct: platelet membranes were prepared by centrifugation and washing; tissue Pel-Freez (Rogers, AR); host or cells: rabbit platelets from citrated whole blood (membranes)
Procedure: The ability of representative compounds of the present invention to inhibit PAF activity was determined in an in vitro test using the following method. Citrated whole rabbit blood was obtained from Pel-Freez (Rogers, AR). Rabbit platelets were prepared by centrifugation and washing. The platelets were lysed by freeze-thawing and sonication; platelet membranes were prepared by centrifugation and washing. Final membrane preparations were stored frozen in 10 mM Tris/5 mM MgCl2 /2 mM EDTA (TME buffer, pH 7.0) with 0.25M sucrose added for membrane stabilization. […] The final volume of the assay was 100 μl. The assay was conducted in […] (Millipore Corp.) filtration plates; incubation time was for 60 minutes at room temperature (22°-23° C.). "Specific binding" was operationally defined as the arithmetic difference between "total binding" of 0.6 nM [^3 H]C18 -PAF (in the absence of added PAF) and "nonspecific binding" (in the presence of 1 μM PAF). After the prescribed incubation, platelet membranes were filtered under vacuum, and washed with 1 millilitre of "binding buffer". The filters were dried and removed. The bound radioactivity was quantitated with a Berthold TLC-Linear Analyzer model LB2842. Dose-response curves of inhibition of specific [^3 H]C18 -PAF binding by test compounds were conducted in triplicate, with at least four doses covering the active range. Experiments were repeated at least once. IC50 values (concentration producing 50% inhibition) were determined by point-to-point evaluation. Ki values of inhibitory binding constants were calculated according to the method of Cheng and Prusoff [Biochem. Pharmacol. 22 (1973) 3099-3108] whereby [formula] The values of Ki for representative compounds of the present invention appear in Table 1.

T1 sequence (G1TEI7 1-342): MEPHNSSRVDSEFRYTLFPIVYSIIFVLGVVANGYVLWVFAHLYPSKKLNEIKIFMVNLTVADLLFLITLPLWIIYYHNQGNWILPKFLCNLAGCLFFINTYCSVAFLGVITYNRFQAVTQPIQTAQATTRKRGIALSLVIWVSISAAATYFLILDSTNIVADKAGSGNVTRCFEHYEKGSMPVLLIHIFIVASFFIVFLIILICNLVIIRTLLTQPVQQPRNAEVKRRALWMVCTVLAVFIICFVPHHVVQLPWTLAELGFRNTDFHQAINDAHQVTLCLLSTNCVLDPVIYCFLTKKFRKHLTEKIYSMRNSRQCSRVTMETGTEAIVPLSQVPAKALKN

| Compound | Ki [nM] |
| --- | --- |
| CC(C)(C)OC(=O)N1C(CNc2cccc(C(=O)c3ccccc3)c2)CSC1c1cccnc1 (stereo not drawn) [Example 3, N-(3-benzoylphenyl)2-(3-pyridinyl)-3-tert-butoxycarbonylthiazolid-4-ylmethylamine] | 8700 |
| COc1cc(C(=O)c2cccc(NC[C@H]3CC[C@@H](c4cccnc4)N3)c2)cc(OC)c1OC (relative stereo) [13 (cis), N-[3-(3,4,5-trimethoxybenzoyl)phenyl][2-(3-pyridyl)-pyrrolidin-5-yl]methylamine] | 2300 |
| COc1cc(C(=O)c2cccc(NC[C@H]3CC[C@H](c4cccnc4)N3)c2)cc(OC)c1OC (relative stereo) [13 (trans), N-[3-(3,4,5-trimethoxybenzoyl)phenyl][2-(3-pyridyl)-pyrrolidin-5-yl]methylamine] | 8700 |
| COc1cc(C(=O)c2cccc(NCC3CSC(c4cccnc4)N3C(=O)OC(C)(C)C)c2)cc(OC)c1OC (single isomer, unassigned) [Example 1a] | 6770 |
| COc1cc(C(=O)c2cccc(NCC3CSC(c4cccnc4)N3C(=O)OC(C)(C)C)c2)cc(OC)c1OC (single isomer, unassigned) [Example 1b] | 13000 |
| CN(CC1CSC(c2cccnc2)N1)c1cccc(C(=O)c2ccccc2)c1 (stereo not drawn) [Example 12, N-(3-benzoylphenyl) N-methyl 2-(3-pyridinyl)thiazolid-4-ylmethylamine trihydrochloride] | 3400 |
| CN1C(CNc2cccc(C(=O)c3ccccc3)c2)CSC1c1cccnc1 (stereo not drawn) [Example 9, N-(3-benzoylphenyl)[2-(3-pyridinyl)-3-methylthiazolid-4-yl]methylamine dihydrochloride] | 1400 |

These reach a lower Ki. Values come first.

| Ki [nM] | Compound |
| --- | --- |
| 1200 | O=C(c1ccccc1)c1ccc(NCC2CSC(c3cccnc3)N2)cc1 (stereo not drawn) [Example 7, N-(4-benzoylphenyl)2-(3-pyridinyl)thiazolid-4-ylmethylamine] |
| 900 | N-[3-(3,4,5-trimethoxybenzoylphenyl]2-(3-pyridinyl)dithiolan-4-ylmethylamine dihydrochloride [Example 10] |
| 750 | O=C(NCC1CSC(c2cccnc2)S1)Nc1cccc(C(=O)c2ccccc2)c1 (stereo not drawn) [Example 16, N-[2-(3-pyridinyl)dithiolan-4-ylmethyl]N'-(3-benzoylphenyl)urea] |
| 430 | O=C(c1ccccc1)c1ccccc1NCC1CSC(c2cccnc2)N1 (stereo not drawn) [Example 6, N-(2-benzoylphenyl)2-(3-pyridinyl)thiazolid-4-ylmethylamine] |
| 190 | c1ccc(Oc2ccc(NCC3CSC(c4cccnc4)N3)cc2)cc1 (stereo not drawn) [Example 8, N-(4-phenoxyphenyl)2-(3-pyridinyl)thiazolid-4-ylmethylamine] |
| 160 | O=C(c1ccccc1)c1cccc(NCC2CSC(c3cccnc3)S2)c1 (stereo not drawn) [Example 11, N-(3-benzoylphenyl)2-(3-pyridinyl)dithiolan-4-ylmethylamine] |
| 150 | O=C(NCC1CSC(c2cccnc2)N1)Nc1cccc(C(=O)c2ccccc2)c1 (stereo not drawn) [Example 15, N-[2-(3-pyridinyl)thiazolid-4-ylmethyl]N'-(3-benzoylphenyl)urea dihydrochloride] |
| 110 | COc1cc(C(=O)c2cccc(NC(=O)NCC3CSC(c4cccnc4)N3)c2)cc(OC)c1OC (stereo not drawn) [Example 14, N-[2-(3-pyridinyl)thiazolid-4-ylmethyl]-N'-[3-(3,4,5-trimethoxybenzoyl)phenyl]urea] |
| 38 | O=C(c1ccccc1)c1cccc(NCC2CSC(c3cccnc3)N2)c1 (stereo not drawn) [Example 5, N-(3-benzoylphenyl)2-(3-pyridinyl)thiazolid-4-ylmethylamine trihydrochloride] |
| 23 | O=C(c1ccccc1)c1cccc(NCC2CSC(c3cccnc3)N2)c1 (stereo not drawn) [Example 4, N-(3-benzoylphenyl)2-(3-pyridinyl)thiazolid-4-ylmethylamine] |
| 10 | COc1cc(C(=O)c2cccc(NCC3CSC(c4cccnc4)N3)c2)cc(OC)c1OC (stereo not drawn) [Example 2, N-[3-(3,4,5-trimethoxybenzoylphenyl]2-(3-pyridinyl)thiazolid-4-ylmethylaminetrihydrochloride] |
